According to ChEMBL document CHEMBL6092215, “A Prostate-Specific Membrane Antigen-Targeting Small Molecule-Drug Conjugate Strategy to Overcome the Hematological Toxicity of Olaparib” (J Med Chem, 2024):

How the values were obtained:
[1] = Antiproliferative activity against PSMA negative human RWPE-1 cells assessed as effect on cell viability incubated for 72 hrs by MTT assay; type: toxicity, cell-based; conditions: RWPE-1 cells (PSMA negative)
PC-3 = test: Antiproliferative activity against PSMA negative human PC-3 cells assessed as effect on cell viability incubated for 72 hrs by MTT assay; type: functional
CWR22R = test: Antiproliferative activity against human 22Rv1 cells with high PSMA expression assessed as effect on cell viability incubated for 72 hrs by MTT assay; type: functional, cell-based; conditions: 22Rv1, 72 h
LNCaP = test: Antiproliferative activity against human LNCaP cells with high PSMA expression assessed as effect on cell viability incubated for 72 hrs by MTT assay; type: functional, cell-based

Compound | CC50 at 72 h [1] | CC50 (PC-3) | IC50 (CWR22R) | IC50 (LNCaP)
O=C(O)CC[C@H](NC(=O)N[C@@H](CCCCNC(=O)CCC(=O)NCC(=O)N1CCN(C(=O)c2cc(Cc3n[nH]c(=O)c4ccccc34)ccc2F)CC1)C(=O)O)C(=O)O | > 1000 µM | > 1000 µM | 126 µM | 147 µM
CC(C)C[C@H](NC(=O)CCC(=O)NCCCC[C@H](NC(=O)N[C@@H](CCC(=O)O)C(=O)O)C(=O)O)C(=O)N1CCN(C(=O)c2cc(Cc3n[nH]c(=O)c4ccccc34)ccc2F)CC1 | > 1000 µM | > 1000 µM | 113 µM | 130 µM
O=C(O)CC[C@H](NC(=O)N[C@@H](CCCCNC(=O)CCN1CCN(C(=O)c2cc(Cc3n[nH]c(=O)c4ccccc34)ccc2F)CC1)C(=O)O)C(=O)O | > 1000 µM | > 1000 µM | 286 µM | 284 µM
CC(C)[C@@H](NC(=O)CCC(=O)NCCCC[C@H](NC(=O)N[C@@H](CCC(=O)O)C(=O)O)C(=O)O)C(=O)N1CCN(C(=O)c2cc(Cc3n[nH]c(=O)c4ccccc34)ccc2F)CC1 | > 1000 µM | > 1000 µM | 128 µM | 121 µM
O=C(O)CC[C@H](NC(=O)N[C@@H](CCCCNC(=O)CCCC(=O)N1CCN(C(=O)c2cc(Cc3n[nH]c(=O)c4ccccc34)ccc2F)CC1)C(=O)O)C(=O)O | > 1000 µM | > 1000 µM | 139 µM | 96.6 µM
O=C(O)CC[C@H](NC(=O)N[C@@H](CCCCNC(=O)CCCCCCC(=O)N1CCN(C(=O)c2cc(Cc3n[nH]c(=O)c4ccccc34)ccc2F)CC1)C(=O)O)C(=O)O | > 1000 µM | > 1000 µM | 137 µM | 99.9 µM
O=C(O)CC[C@H](NC(=O)N[C@@H](CCCCNC(=O)CCC(=O)N[C@@H](CO)C(=O)N1CCN(C(=O)c2cc(Cc3n[nH]c(=O)c4ccccc34)ccc2F)CC1)C(=O)O)C(=O)O | > 1000 µM | > 1000 µM | 209 µM | 202 µM
CC(C)[C@H](NC(=O)CCC(=O)NCCCC[C@H](NC(=O)N[C@@H](CCC(=O)O)C(=O)O)C(=O)O)C(=O)N1CCN(C(=O)c2cc(Cc3n[nH]c(=O)c4ccccc34)ccc2F)CC1 | > 1000 µM | > 1000 µM | 122 µM | 111 µM
O=C(O)CC[C@H](NC(=O)N[C@@H](CCCCNC(=O)CCCNC(=O)N1CCN(C(=O)c2cc(Cc3n[nH]c(=O)c4ccccc34)ccc2F)CC1)C(=O)O)C(=O)O | > 1000 µM | > 1000 µM | 337 µM | 300 µM
O=C(O)CC[C@H](NC(=O)N[C@@H](CCCCNC(=O)CCOC(=O)N1CCN(C(=O)c2cc(Cc3n[nH]c(=O)c4ccccc34)ccc2F)CC1)C(=O)O)C(=O)O | > 1000 µM | > 1000 µM | 289 µM | 182 µM
O=C(O)CC[C@H](NC(=O)N[C@@H](CCCCNC(=O)CCSSCCC(=O)N1CCN(C(=O)c2cc(Cc3n[nH]c(=O)c4ccccc34)ccc2F)CC1)C(=O)O)C(=O)O | > 1000 µM | > 1000 µM | 432 µM | 259 µM
O=C(O)CC[C@H](NC(=O)N[C@@H](CCCCNC(=O)CCC(=O)N[C@@H](Cc1ccccc1)C(=O)N1CCN(C(=O)c2cc(Cc3n[nH]c(=O)c4ccccc34)ccc2F)CC1)C(=O)O)C(=O)O | > 1000 µM | > 1000 µM | 132 µM | 152 µM
CSCC[C@H](NC(=O)CCC(=O)NCCCC[C@H](NC(=O)N[C@@H](CCC(=O)O)C(=O)O)C(=O)O)C(=O)N1CCN(C(=O)c2cc(Cc3n[nH]c(=O)c4ccccc34)ccc2F)CC1 | > 1000 µM | > 1000 µM | 175 µM | 190 µM
CN(CC(=O)N1CCN(C(=O)c2cc(Cc3n[nH]c(=O)c4ccccc34)ccc2F)CC1)C(=O)CCC(=O)NCCCC[C@H](NC(=O)N[C@@H](CCC(=O)O)C(=O)O)C(=O)O | > 1000 µM | > 1000 µM | 129 µM | 136 µM
O=C(O)CC[C@H](NC(=O)N[C@@H](CCCCNC(=O)N1CCN(C(=O)c2cc(Cc3n[nH]c(=O)c4ccccc34)ccc2F)CC1)C(=O)O)C(=O)O | > 1000 µM | > 1000 µM | 314 µM | 251 µM
O=C(O)CC[C@H](NC(=O)N[C@@H](CCCCNC(=O)c1cc(Cc2n[nH]c(=O)c3ccccc23)ccc1F)C(=O)O)C(=O)O | > 1000 µM | > 1000 µM | 455 µM | 283 µM
O=C(O)CC[C@H](NC(=O)N[C@@H](CCCCNC(=O)CCNC(=O)N1CCN(C(=O)c2cc(Cc3n[nH]c(=O)c4ccccc34)ccc2F)CC1)C(=O)O)C(=O)O | > 1000 µM | > 1000 µM | 327 µM | 273 µM
NC(=O)NCCC[C@H](NC(=O)CCC(=O)NCCCC[C@H](NC(=O)N[C@@H](CCC(=O)O)C(=O)O)C(=O)O)C(=O)N1CCN(C(=O)c2cc(Cc3n[nH]c(=O)c4ccccc34)ccc2F)CC1 | > 1000 µM | > 1000 µM | 265 µM | 242 µM
O=C(O)CC[C@H](NC(=O)N[C@@H](CCCCNC(=O)CCC(=O)NCCCC(=O)N1CCN(C(=O)c2cc(Cc3n[nH]c(=O)c4ccccc34)ccc2F)CC1)C(=O)O)C(=O)O | > 1000 µM | > 1000 µM | 134 µM | 162 µM
CC[C@@H](C)[C@H](NC(=O)CCC(=O)NCCCC[C@H](NC(=O)N[C@@H](CCC(=O)O)C(=O)O)C(=O)O)C(=O)N1CCN(C(=O)c2cc(Cc3n[nH]c(=O)c4ccccc34)ccc2F)CC1 | > 1000 µM | > 1000 µM | 126 µM | 135 µM
C[C@H](NC(=O)CCC(=O)NCCCC[C@H](NC(=O)N[C@@H](CCC(=O)O)C(=O)O)C(=O)O)C(=O)N1CCN(C(=O)c2cc(Cc3n[nH]c(=O)c4ccccc34)ccc2F)CC1 | > 1000 µM | > 1000 µM | 133 µM | 129 µM
O=C(O)CC[C@H](NC(=O)N[C@@H](CCCCNC(=O)CCC(=O)N[C@@H](C(=O)N1CCN(C(=O)c2cc(Cc3n[nH]c(=O)c4ccccc34)ccc2F)CC1)c1ccccc1)C(=O)O)C(=O)O | > 1000 µM | > 1000 µM | 162 µM | 173 µM
O=C(O)CC[C@H](NC(=O)N[C@@H](CCCCNC(=O)CCCNC(=O)CCCCCCC(=O)N1CCN(C(=O)c2cc(Cc3n[nH]c(=O)c4ccccc34)ccc2F)CC1)C(=O)O)C(=O)O | > 1000 µM | > 1000 µM | 208 µM | 238 µM
